Reference: patent publication US9724391B2, “Combination preparation including a corticosteroid and exosomes” (ORTHOGEN AG, priority 2009, dated 2017)

Key:
[1] = tested on: osteoarthritis; conditions: in vivo; cited from earlier work
[2] = tested on: patient with gonarthrosis ri, cartilage defects degree 2-4 according to Outerbridge; test: Case VIII: gonarthrosis ri, intraarticular injection into the right knee; type: in vivo, human; conditions: triamcinolone 10-40 mg intraarticular (history); exosomes one-time intraarticular, after 4 weeks
Experimental: Case VIII: • Gonarthrosis ri with cartilage defects verified arthroscopically degree 2-4 according to Outerbridge. The patient wishes to delay surgery and joint replacement. History of intraarticular injection of triamcinolone in doses of 10-40 mg to no effect. Injection of 1 ml of exosomes prepared by means of the technique as described after incubation with IL-1Ra. […] Afterwards decision for an intraarticular injection into the right knee combined with 10 mg triamcinolone.

[3] = tested on: patient with severe neurodermitis; test: Case IX: severe neurodermitis, intramuscular application; type: in vivo, human; conditions: systemic intramuscular application, doses of 80 mg
Experimental: FIG. 1A to FIG. 1C show pictures of the feet of a neurodermitis patient whose case is described below as case IX (Example 4).
Case IX: • Severe dermatologically verified neurodermitis with strong changes, especially in the area of hands and feet. […] After that, attempt of intramuscular application of 2 ml of exosomes in connection with 20 mg triamcinolone. […] Subsequent slight deterioration but still improvement compared to preliminary findings. FIG. 1A describes the dermatological changes at both feet immediately before treatment, FIG. 1B and FIG. 1C one week after treatment for the right/left foot.

[4] = tested on: patient with severe Bechterew arthritis; test: Case X: severe Bechterew arthritis, injection into the affected joints; type: in vivo, human; conditions: total dose 40 mg into all affected joints; for 1 week
Experimental: Case X • Severe Bechterew arthritis with iridocyclitis left eye. Patient is given prednisolone and MTX in changing doses as basic therapy. CRP 20_3 mg/l; left CFJ clearly swollen with +2 cm compared to the other side; left MCP and first knuckle 1st finger left clearly swollen and painful, right shoulder swollen, painful, abduction reduced by 30 degrees compared to normal. […] CRP within 1 week reduced from 20.3 mg/l to 2.9 mg/l.

[5] = tested on: patient with severe therapy-resistant rheumatoid arthritis; conditions: after one week; triamcinolone alone 10 mg to 40 mg intraarticular, combination with total 20 mg triamcinolone
Experimental: Injection of exosomes (after incubation with IL-1Ra) and admixing total amount of 20 mg triamcinolone in MCP2-5 ab. and both shoulders.

[6] = tested on: patient with partial rotator cuff rupture and complete shoulder stiffness le; conditions: before combination therapy
Experimental: Surgery appointment for the left shoulder was made. Here it should be tried to avoid surgery. […] 2 ml Orthokine were administered into the shoulder with 10 mg Anakinra and 10 mg triamcinolone via a syringe. […] The therapy was continued until day 4.

[7] = tested on: patient with psoriasic arthritis; conditions: cortisone 20-40 mg intraarticular, effect for some days; combination after a few days
[8] = tested on: patient with complete alopecia; conditions: systemic and local application, high doses (10-80 mg prednisolone)

Anakinra: recombinant human IL-1 receptor antagonist, amino acids 26-177, terminally L-methionylated, 153 amino acids
effects in the treatment of osteoarthritis compared to a placebo treatment [1]: did not show any effects

C[C@]12C=CC(=O)C=C1CC[C@H]1[C@@H]3C[C@@H](O)[C@](O)(C(=O)CO)[C@@]3(C)C[C@H](O)[C@@]12F [triamcinolone]
clinical effect regarding pain and function of single agents [2]: to no effect
duration of short-term effect [3]: 1 week
improvement [4]: 20%
pain improvement / pain reduction [5]: 20%

C[C@]12CCC(=O)C=C1CC[C@@H]1[C@@H]2C(=O)C[C@@]2(C)[C@H]1CC[C@]2(O)C(=O)CO [cortisone]
outcome of numerous earlier injections into the left shoulder [6]: without success
pain reduction [7]: 10-30%
effect of earlier therapy attempts on alopecia [8]: without effect

C[C@]12C=CC(=O)C=C1CC[C@@H]1[C@@H]2[C@@H](O)C[C@@]2(C)[C@H]1CC[C@]2(O)C(=O)CO [prednisolone]
duration of short-term effect [3]: 1 week
